Laboratory results as given in the supplement of paper PMC11451515.

Experiments:
[1] = tested on: SEM cells; experiment: cell viability relative to DMSO control; higher = less cytotoxic; conditions: HPLM + 10% dialyzed FBS, 48 h
In short: (§1)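 Library compounds in DMSO were pin-dosed in an 11-point threefold series (47 μM to 0.79 nM) onto leukemia cells in 1536-well plates (5 μl). Plates held 500 cells/well of NOMO1 or SEM or 1000 cells/well of P12-Ichikawa, each adapted for at least four passages in each medium. Luminescence was read with CellTiter-Glo One after 48 h at 37°C. Viability means the per-plate percentage relative to DMSO wells, using cell-free wells as background.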

[2] = tested on: NOMO1; experiment: AUC of viability dose-response curve (% viability x log10 dose units); higher = less sensitive; conditions: 48 h
In short: (§2)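 Area under the curve was integrated by trapezoidal rule from a log-logistic fit of normalised viability, with curves exceeding full viability scaled and quality-control failures removed. The fit had four parameters over log10 doses. Viability came from CellTiter-Glo One luminescence, normalised per plate to DMSO and cell-free wells, after leukemia cells adapted to each medium (500 or 1000 cells/well, 1536-well plates) were exposed to library compounds in DMSO for 48 h at 37°C. The 11 threefold doses ran from 47 μM to 0.79 nM.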

[3] = tested on: P12-Ichikawa; experiment: as above; conditions: 48 h
In short: as §2

[4] = tested on: SEM cells; experiment: as above; conditions: 48 h
In short: as §2

[5] = tested on: NOMO1; experiment: cell viability relative to DMSO control; higher = less cytotoxic; conditions: RPMI 5 mM glucose + 10% FBS, 48 h
In short: as §1

[6] = tested on: P12-Ichikawa; experiment: as above; conditions: 48 h
In short: as §1

Cc1cncc2cccc([S+](=O)([O-])N3CCCN(C(=O)CN)C[C@@H]3C)c12
Conditions | AUC of viability dose-response curve | cell viability [%]
[1], 0.000781 µM | – | 94.8
[1], 0.00234 µM | – | 114
[1], 0.00702 µM | – | 126
[1], 0.0211 µM | – | 124
[1], 0.0632 µM | – | 122
[1], 0.19 µM | – | 134
[1], 0.569 µM | – | 138
[1], 1.71 µM | – | 137
[1], 5.12 µM | – | 79
[1], 15.4 µM | – | 66.7
[1], 46.1 µM | – | 39.9
[2], HPLM + 10% dialyzed FBS | 455 | –
[2], RPMI 5 mM glucose + 10% FBS | 446 | –
[2], RPMI 5 mM glucose + 10% dialyzed FBS | 438 | –
[3], HPLM + 10% dialyzed FBS | 401 | –
[3], RPMI 5 mM glucose + 10% FBS | 401 | –
[3], RPMI 5 mM glucose + 10% dialyzed FBS | 412 | –
[4], HPLM + 10% dialyzed FBS | 419 | –
[4], RPMI 5 mM glucose + 10% FBS | 397 | –
[4], RPMI 5 mM glucose + 10% dialyzed FBS | 392 | –

CN[C@@H]1Cc2cccc3[nH]c(=O)n(c23)C1
Conditions | AUC of viability dose-response curve | cell viability [%]
[1], 0.000781 µM | – | 108
[1], 0.00234 µM | – | 119
[1], 0.00702 µM | – | 105
[1], 0.0211 µM | – | 121
[1], 0.0632 µM | – | 98.8
[1], 0.19 µM | – | 100
[1], 0.569 µM | – | 110
[1], 1.71 µM | – | 103
[1], 5.12 µM | – | 104
[1], 15.4 µM | – | 92.8
[1], 46.1 µM | – | 95.4
[2], HPLM + 10% dialyzed FBS | 455 | –
[2], RPMI 5 mM glucose + 10% FBS | 450 | –
[2], RPMI 5 mM glucose + 10% dialyzed FBS | 458 | –
[3], HPLM + 10% dialyzed FBS | 449 | –
[3], RPMI 5 mM glucose + 10% FBS | 445 | –
[3], RPMI 5 mM glucose + 10% dialyzed FBS | 456 | –
[4], HPLM + 10% dialyzed FBS | 442 | –
[4], RPMI 5 mM glucose + 10% FBS | 454 | –
[4], RPMI 5 mM glucose + 10% dialyzed FBS | 452 | –
[5], 0.000781 µM | – | 112
[5], 0.00234 µM | – | 113
[5], 0.00702 µM | – | 118
[5], 0.0211 µM | – | 110
[5], 0.0632 µM | – | 107
[5], 0.19 µM | – | 105
[5], 0.569 µM | – | 108
[5], 1.71 µM | – | 106
[5], 5.12 µM | – | 105
[5], 15.4 µM | – | 102
[5], 46.1 µM | – | 103

cell viability [%], [6]
Conditions | HPLM + 10% dialyzed FBS | RPMI 5 mM glucose + 10% dialyzed FBS
0.000781 µM | 124 | 122
0.00234 µM | 123 | 122
0.00702 µM | 114 | 116
0.0211 µM | 115 | 130
0.0632 µM | 122 | 117
0.19 µM | 117 | 123
0.569 µM | 108 | 115
1.71 µM | 117 | 109
5.12 µM | 108 | 108
15.4 µM | 106 | 111
46.1 µM | 111 | 105

CC(C)(C)c1cnc(CSc2cnc(NC(=O)C3CCNCC3)s2)o1
AUC of viability dose-response curve
Conditions | [2] | [3] | [4]
HPLM + 10% dialyzed FBS | 289 | 250 | 297
RPMI 5 mM glucose + 10% FBS | 321 | 321 | 309
RPMI 5 mM glucose + 10% dialyzed FBS | 312 | 330 | 311

CC(/C=C1\SC(=S)N(CC(=O)O)C1=O)=C\c1ccccc1
AUC of viability dose-response curve
Conditions | [2] | [3] | [4]
HPLM + 10% dialyzed FBS | 452 | 461 | 471
RPMI 5 mM glucose + 10% FBS | 454 | 440 | 420
RPMI 5 mM glucose + 10% dialyzed FBS | 472 | 457 | 476

COc1ccc2c(c1)c(CC(=O)O)c(C)n2C(=O)c1ccc(Cl)cc1
AUC of viability dose-response curve
Conditions | [2] | [3] | [4]
HPLM + 10% dialyzed FBS | 461 | 440 | 459
RPMI 5 mM glucose + 10% FBS | 473 | 466 | 432
RPMI 5 mM glucose + 10% dialyzed FBS | 460 | 466 | 466
